{"source": "PubChem BioAssay AID1963842", "about": "(Molecular Pharmacology Branch, DTP, NCI, 2024)", "tested_on": "677734-321-R-J1-PDC complex spheroid viability", "assay": "Anticancer human tumor 677734-321-R-J1-PDC patient-derived soft tissue sarcoma cell line growth inhibition [POLQ]", "details": "for IC50: curve of first compound; for viability, T/C: stronger effect = lower value", "in_short": "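Growth inhibition in 3D: complex spheroids (tumor PDC, HUVEC, MSC) treated with POLQ inhibitor combinations; where Cmax unknown, highest tested concentration 10 microM, except SN-38 at 1 microM.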", "key": {"[1]": {"details": "second compound 0.0316 µM, first compound 0.0316 µM"}, "[2]": {"details": "second compound 0.0316 µM, first compound 0.1 µM"}, "[3]": {"details": "second compound 0.0316 µM, first compound 0.316 µM"}, "[4]": {"details": "second compound 0.0316 µM, first compound 1 µM"}, "[5]": {"details": "second compound 0.0316 µM, first compound 3.16 µM"}, "[6]": {"details": "second compound 0.0316 µM, first compound 10 µM"}, "[7]": {"details": "second compound 0.1 µM, first compound 0.0316 µM"}, "[8]": {"details": "second compound 0.1 µM, first compound 0.1 µM"}, "[9]": {"details": "second compound 0.1 µM, first compound 0.316 µM"}, "[10]": {"details": "second compound 0.1 µM, first compound 1 µM"}, "[11]": {"details": "second compound 0.1 µM, first compound 3.16 µM"}, "[12]": {"details": "second compound 0.1 µM, first compound 10 µM"}, "[13]": {"details": "second compound 0.316 µM, first compound 0.0316 µM"}, "[14]": {"details": "second compound 0.316 µM, first compound 0.1 µM"}, "[15]": {"details": "second compound 0.316 µM, first compound 0.316 µM"}, "[16]": {"details": "second compound 0.316 µM, first compound 1 µM"}, "[17]": {"details": "second compound 0.316 µM, first compound 3.16 µM"}, "[18]": {"details": "second compound 0.316 µM, first compound 10 µM"}, "[19]": {"details": "second compound 1 µM, first compound 0.0316 µM"}, "[20]": {"details": "second compound 1 µM, first compound 0.1 µM"}, "[21]": {"details": "second compound 1 µM, first compound 0.316 µM"}, "[22]": {"details": "second compound 1 µM, first compound 1 µM"}, "[23]": {"details": "second compound 1 µM, first compound 3.16 µM"}, "[24]": {"details": "second compound 1 µM, first compound 10 µM"}, "[25]": {"details": "second compound 3.16 µM, first compound 0.0316 µM"}, "[26]": {"details": "second compound 3.16 µM, first compound 0.1 µM"}, "[27]": {"details": "second compound 3.16 µM, first compound 0.316 µM"}, "[28]": {"details": "second compound 3.16 µM, first compound 1 µM"}, "[29]": {"details": "second compound 3.16 µM, first compound 3.16 µM"}, "[30]": {"details": "second compound 3.16 µM, first compound 10 µM"}, "[31]": {"details": "second compound 10 µM, first compound 0.0316 µM"}, "[32]": {"details": "second compound 10 µM, first compound 0.1 µM"}, "[33]": {"details": "second compound 10 µM, first compound 0.316 µM"}, "[34]": {"details": "second compound 10 µM, first compound 1 µM"}, "[35]": {"details": "second compound 10 µM, first compound 3.16 µM"}, "[36]": {"details": "second compound 10 µM, first compound 10 µM"}}, "data": [{"molecule": "COc1cc2cc(C(=O)CCC(=O)O)sc2cc1OC", "note": "+ Cc1cccc(N(C)C(=O)C2C(O)CCN2c2nc(C)cc(C(F)(F)F)c2C#N)c1;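 note: spheroids exposed to compounds for one week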;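 for viability, T/C: 100% = vehicle DMSO treated spheroids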", "values": [{"measurement": "IC50", "setting": "second compound 0.0316 µM", "value": "> 10", "unit": "µM"}, {"measurement": "IC50", "setting": "second compound 0.1 µM", "value": "> 10", "unit": "µM"}, {"measurement": "IC50", "setting": "second compound 0.316 µM", "value": "> 10", "unit": "µM"}, {"measurement": "IC50", "setting": "second compound 1 µM", "value": "> 10", "unit": "µM"}, {"measurement": "IC50", "setting": "second compound 3.16 µM", "value": "> 10", "unit": "µM"}, {"measurement": "IC50", "setting": "second compound 10 µM", "value": "> 10", "unit": "µM"}, {"measurement": "viability, T/C", "setting": "[1]", "value": 104, "unit": "%"}, {"measurement": "viability, T/C", "setting": "[2]", "value": 87.6, "unit": "%"}, {"measurement": "viability, T/C", "setting": "[3]", "value": 97.2, "unit": "%"}, {"measurement": "viability, T/C", "setting": "[4]", "value": 101, "unit": "%"}, {"measurement": "viability, T/C", "setting": "[5]", "value": 110, "unit": "%"}, {"measurement": "viability, T/C", "setting": "[6]", "value": 92.4, "unit": "%"}, {"measurement": "viability, T/C", "setting": "[7]", "value": 92.8, "unit": "%"}, {"measurement": "viability, T/C", "setting": "[8]", "value": 87, "unit": "%"}, {"measurement": "viability, T/C", "setting": "[9]", "value": 92, "unit": "%"}, {"measurement": "viability, T/C", "setting": "[10]", "value": 107, "unit": "%"}, {"measurement": "viability, T/C", "setting": "[11]", "value": 103, "unit": "%"}, {"measurement": "viability, T/C", "setting": "[12]", "value": 86, "unit": "%"}, {"measurement": "viability, T/C", "setting": "[13]", "value": 115, "unit": "%"}, {"measurement": "viability, T/C", "setting": "[14]", "value": 94.8, "unit": "%"}, {"measurement": "viability, T/C", "setting": "[15]", "value": 89.6, "unit": "%"}, {"measurement": "viability, T/C", "setting": "[16]", "value": 87.8, "unit": "%"}, {"measurement": "viability, T/C", "setting": "[17]", "value": 101, "unit": "%"}, {"measurement": "viability, T/C", "setting": "[18]", "value": 74.5, "unit": "%"}, {"measurement": "viability, T/C", "setting": "[19]", "value": 86.4, "unit": "%"}, {"measurement": "viability, T/C", "setting": "[20]", "value": 77.4, "unit": "%"}, {"measurement": "viability, T/C", "setting": "[21]", "value": 89.2, "unit": "%"}, {"measurement": "viability, T/C", "setting": "[22]", "value": 99.7, "unit": "%"}, {"measurement": "viability, T/C", "setting": "[23]", "value": 81.3, "unit": "%"}, {"measurement": "viability, T/C", "setting": "[24]", "value": 70.7, "unit": "%"}, {"measurement": "viability, T/C", "setting": "[25]", "value": 96.2, "unit": "%"}, {"measurement": "viability, T/C", "setting": "[26]", "value": 87.1, "unit": "%"}, {"measurement": "viability, T/C", "setting": "[27]", "value": 84.4, "unit": "%"}, {"measurement": "viability, T/C", "setting": "[28]", "value": 102, "unit": "%"}, {"measurement": "viability, T/C", "setting": "[29]", "value": 83.1, "unit": "%"}, {"measurement": "viability, T/C", "setting": "[30]", "value": 82.3, "unit": "%"}, {"measurement": "viability, T/C", "setting": "[31]", "value": 77.1, "unit": "%"}, {"measurement": "viability, T/C", "setting": "[32]", "value": 91.8, "unit": "%"}, {"measurement": "viability, T/C", "setting": "[33]", "value": 77.4, "unit": "%"}, {"measurement": "viability, T/C", "setting": "[34]", "value": 79.4, "unit": "%"}, {"measurement": "viability, T/C", "setting": "[35]", "value": 88.7, "unit": "%"}, {"measurement": "viability, T/C", "setting": "[36]", "value": 85.8, "unit": "%"}]}, {"molecule": "COc1ccc([C@@H](O)c2cc(-c3ncnc4cc(N5CCOCC5)ccc34)c(F)cc2Cl)nn1", "note": "+ Cc1cccc(N(C)C(=O)C2C(O)CCN2c2nc(C)cc(C(F)(F)F)c2C#N)c1", "values": [{"measurement": "IC50", "setting": "second compound 0.0316 µM", "value": "> 10", "unit": "µM"}, {"measurement": "IC50", "setting": "second compound 0.1 µM", "value": 9.31, "unit": "µM"}, {"measurement": "IC50", "setting": "second compound 0.316 µM", "value": 9.22, "unit": "µM"}, {"measurement": "IC50", "setting": "second compound 1 µM", "value": "> 10", "unit": "µM"}, {"measurement": "IC50", "setting": "second compound 3.16 µM", "value": "> 10", "unit": "µM"}, {"measurement": "IC50", "setting": "second compound 10 µM", "value": 7.64, "unit": "µM"}, {"measurement": "viability, T/C", "setting": "[1]", "value": 109, "unit": "%"}, {"measurement": "viability, T/C", "setting": "[2]", "value": 103, "unit": "%"}, {"measurement": "viability, T/C", "setting": "[3]", "value": 96.2, "unit": "%"}, {"measurement": "viability, T/C", "setting": "[4]", "value": 93.4, "unit": "%"}, {"measurement": "viability, T/C", "setting": "[5]", "value": 74.9, "unit": "%"}, {"measurement": "viability, T/C", "setting": "[6]", "value": 53.7, "unit": "%"}, {"measurement": "viability, T/C", "setting": "[7]", "value": 99.3, "unit": "%"}, {"measurement": "viability, T/C", "setting": "[8]", "value": 98.9, "unit": "%"}, {"measurement": "viability, T/C", "setting": "[9]", "value": 95, "unit": "%"}, {"measurement": "viability, T/C", "setting": "[10]", "value": 92.9, "unit": "%"}, {"measurement": "viability, T/C", "setting": "[11]", "value": 79.4, "unit": "%"}, {"measurement": "viability, T/C", "setting": "[12]", "value": 47.6, "unit": "%"}, {"measurement": "viability, T/C", "setting": "[13]", "value": 105, "unit": "%"}, {"measurement": "viability, T/C", "setting": "[14]", "value": 101, "unit": "%"}, {"measurement": "viability, T/C", "setting": "[15]", "value": 93.8, "unit": "%"}, {"measurement": "viability, T/C", "setting": "[16]", "value": 91.3, "unit": "%"}, {"measurement": "viability, T/C", "setting": "[17]", "value": 77.4, "unit": "%"}, {"measurement": "viability, T/C", "setting": "[18]", "value": 47.2, "unit": "%"}, {"measurement": "viability, T/C", "setting": "[19]", "value": 107, "unit": "%"}, {"measurement": "viability, T/C", "setting": "[20]", "value": 97.8, "unit": "%"}, {"measurement": "viability, T/C", "setting": "[21]", "value": 92.7, "unit": "%"}, {"measurement": "viability, T/C", "setting": "[22]", "value": 90.1, "unit": "%"}, {"measurement": "viability, T/C", "setting": "[23]", "value": 81.2, "unit": "%"}, {"measurement": "viability, T/C", "setting": "[24]", "value": 55.5, "unit": "%"}, {"measurement": "viability, T/C", "setting": "[25]", "value": 102, "unit": "%"}, {"measurement": "viability, T/C", "setting": "[26]", "value": 101, "unit": "%"}, {"measurement": "viability, T/C", "setting": "[27]", "value": 90.8, "unit": "%"}, {"measurement": "viability, T/C", "setting": "[28]", "value": 95.7, "unit": "%"}, {"measurement": "viability, T/C", "setting": "[29]", "value": 68.7, "unit": "%"}, {"measurement": "viability, T/C", "setting": "[30]", "value": 50.9, "unit": "%"}, {"measurement": "viability, T/C", "setting": "[31]", "value": 102, "unit": "%"}, {"measurement": "viability, T/C", "setting": "[32]", "value": 90.4, "unit": "%"}, {"measurement": "viability, T/C", "setting": "[33]", "value": 94.6, "unit": "%"}, {"measurement": "viability, T/C", "setting": "[34]", "value": 92.5, "unit": "%"}, {"measurement": "viability, T/C", "setting": "[35]", "value": 69.7, "unit": "%"}, {"measurement": "viability, T/C", "setting": "[36]", "value": 44, "unit": "%"}]}]}
